How the values were obtained:
Assay in all cases: relative IC50 (inflection point of fitted viability curve, relative to fitted max inhibition); higher = less sensitive
Details in all cases: 72 h
DERL-7 (IL-2 2.5 ng/mL) = test system: DERL-7 (IL-2 2.5 ng/mL)
Method: (§1)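 Drug sensitivity and resistance testing: 5 concentrations over a 10,000-fold range, 72 h at 37 °C, viability by CellTiter-Glo normalised to DMSO and benzethonium chloride controls. IC50 is the inflection point of a logistic fit (min fixed at 0, max fitted), so it is relative to the fitted maximal inhibition. Kept only where fitted max inhibition is at least 50%.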

IMC-1 (IL-2 20 ng/mL) = test system: IMC-1 (IL-2 20 ng/mL)
Method: as §1

KAI3 (IL-2 2.5 ng/mL) = test system: KAI3 (IL-2 2.5 ng/mL)
Method: as §1

KHYG-1 (IL-2 2.5 ng/mL) = test system: KHYG-1 (IL-2 2.5 ng/mL)
Method: as §1

NK-92 (IL-2 2.5 ng/mL) = test system: NK-92 (IL-2 2.5 ng/mL)
Method: as §1

NK-YS (IL-2 2.5 ng/mL) = test system: NK-YS (IL-2 2.5 ng/mL)
Method: as §1

NKL (IL-2 2.5 ng/mL) = test system: NKL (IL-2 2.5 ng/mL)
Method: as §1

SNK-6 (IL-2 2.5 ng/mL) = test system: SNK-6 (IL-2 2.5 ng/mL)
Method: as §1

YT (IL-2 2.5 ng/mL) = test system: YT (IL-2 2.5 ng/mL)
Method: as §1

[1] = test system: normal primary NK cells, pool 1 (3 donors) (IL-2 2.5 ng/mL)
Method: as §1

[2] = test system: normal primary NK cells, pool 1 (3 donors), resting (IL-2 0 ng/mL)
Method: as §1

[3] = test system: normal primary NK cells, pool 2 (3 donors) (IL-2 2.5 ng/mL)
Method: as §1

[4] = test system: normal primary NK cells, pool 3 (3 donors) (IL-2 2.5 ng/mL)
Method: as §1

SMILES | relative IC50 (DERL-7 (IL-2 2.5 ng/mL)) [nM] | relative IC50 (IMC-1 (IL-2 20 ng/mL)) [nM] | relative IC50 (KAI3 (IL-2 2.5 ng/mL)) [nM] | relative IC50 (KHYG-1 (IL-2 2.5 ng/mL)) [nM] | relative IC50 (NK-92 (IL-2 2.5 ng/mL)) [nM] | relative IC50 (NK-YS (IL-2 2.5 ng/mL)) [nM] | relative IC50 (NKL (IL-2 2.5 ng/mL)) [nM] | relative IC50 (SNK-6 (IL-2 2.5 ng/mL)) [nM] | relative IC50 (YT (IL-2 2.5 ng/mL)) [nM] | relative IC50 [1] [nM] | relative IC50 [2] [nM] | relative IC50 [3] [nM] | relative IC50 [4] [nM]
Cc1nc(Nc2n[nH]c3c2CN(C(=O)N[C@H](CN(C)C)c2ccccc2)C3(C)C)c2sccc2n1 | 57.3 | 4.06 | 243 | 33.1 | 431 | 83.5 | 503 | 1340 | 266 | 1420 | 1300 | 575 | 1590
CN(C)Cc1ccc(S(=O)(=O)n2ccc(/C=C/C(=O)NO)c2)cc1 [Resminostat] | 1040 | 3480 | 304 | 731 | 629 | 1300 | 258 | 829 | 1460 | 667 | 268 | 1160 | 1720
COc1ccc(-c2ccc3ncc4c(c3c2)n(-c2ccc(N3CCNCC3)c(C(F)(F)F)c2)c(=O)n4C)cn1 [NVP-BGT226] | 8.54 | 90.7 | 45.8 | 48.4 | 29.8 | 25.3 | 47.8 | 53.8 | 45.6 | 105 | 64.4 | 128 | 167
NC(=O)Nc1sc(-c2ccc(F)cc2)cc1C(N)=O [TPCA-1] | 367 | 7190 | 218 | 381 | 860 | 1440 | 274 | 514 | 912 | 997 | 2310 | 658 | 1020
Cc1ncc(-c2ccnc(Nc3ccc(S(C)(=O)=O)cc3)n2)n1C(C)C [AZD-5438] | 1370 | 1220 | 1150 | 1080 | 3010 | 848 | 2740 | 3300 | 1570 | 2220 | 5260 | 1930 | 1800
COc1ccc(-c2cc3c(C)nc(N)nc3n([C@H]3CC[C@H](OCCO)CC3)c2=O)cn1 | 41.3 | 4020 | 163 | 476 | 84.6 | 344 | 264 | 1060 | 116 | 939 | 514 | 951 | 1510
CC(C)CC(=O)Nc1n[nH]c2c1CN(C(=O)C1CCN(C)CC1)C2(C)C | 666 | 182 | 1390 | 380 | 871 | 463 | 1510 | 1650 | 1220 | 3000 | 4760 | 1890 | 2210
CN(C)C[C@@H]1CCn2cc(c3ccccc32)C2=C(C(=O)NC2=O)c2cn(c3ccccc23)CCO1 [Ruboxistaurin] | 1140 | 4180 | 1430 | 1290 | 2950 | 1540 | 1240 | 2810 | 2730 | 1430 | 1070 | 2110 | 2000
O=[N+]([O-])c1ccc2c(c1)S(=O)(=O)C=C2 [Stattic] | 1220 | 18900 | 1100 | 1700 | 1800 | 6720 | 4710 | 2020 | 1770 | 1110 | 1170 | 1660 | 1850

From the supplement of paper PMC5908809
